Consider four compounds from patent US5834453A, “Methods for the manufacture and use of antimicrobial sterol conjugates” (Lehigh University, priority 1997, dated 1998).

Values after ≈ are worked out from the molar mass of the structure shown.

The test system of data set [1] is various groups of microorganisms. Briefly: Antimicrobial activity (MIC), all microorganisms tested. Format: cell-based. To be noted: 24 h, read-out: MICs against the various groups of microorganisms tested. How it is done:
(§1) The antimicrobial activity of the compounds according to the present invention were compared with the results obtained for squalamine as reported in Proc. Nat. Acad. Sci. USA 90:1354 (1993), supra, the disclosure of which is incorporated in toto herein. The data reported in the following table is the minimum inhibitory concentration (MIC) required for complete inhibition of microbial growth. The MIC was determined utilizing known micro-broth dilution methods in which inocula of 10^6 /ml of the test organism were incubated in 0.5× trypticase soy broth at 35° C. for 24 hours. MIC's were also tested under various pH conditions, with calcium chloride or magnesium chloride, or with immobilized horse serum.
(§2) The numbers in parentheses contained in the table correspond to accession numbers with the American Type Culture Collection (reference strains were either obtained from the American Type Culture Collection or from the Microbiology Laboratory at Memorial Sloan-Kettering Cancer Center; Bacterial strains were maintained on Columbia 5% sheep blood agar plates, and fungi were maintained on Sabouraud Dextrose agar plates).

A short description of data set [2]: Hemolytic activity, minimal hemolytic concentration (MHC). The class given is cell-based, sheep. To be noted: sheep, red blood cells. Here is the method: Hemolytic activity of the squalamine mimics according to the present invention were also studied by incubating sheep red blood cells for 24 hours at 37° C. in saline (final concentration of 0.5%) with or without respective concentrations of the squalamine mimics. The minimal hemolytic concentration (MHC) was determined as the lowest concentration of a mimic that raised visible hemolysis.

In a further data set the test system is E. cloacae (13047). Nature of the data set: MIC, micro-broth dilution. Format: cell-based. To be noted: Enterobacter cloacae, 35° C., 24 hours, read-out: ANTIMICROBIAL ACTIVITY (MIC). Here is the method:
as §1, §2
For orientation: In broth dilution the organism is exposed to a series of concentrations in liquid medium.

A further data set has as its system E. faecium (T6480-9). Nature of the data set: MIC, micro-broth dilution. Format: cell-based. To be noted: Enterococcus faecium, 35° C., 24 hours, read-out: ANTIMICROBIAL ACTIVITY (MIC). How it is done: as §1, §2
In the next data set the test system is P. aeruginosa (2853). Nature of the data set: MIC, micro-broth dilution. Format: cell-based. The settings on record: Pseudomonas aeruginosa, 24 h, read-out: ANTIMICROBIAL ACTIVITY (MIC). Here is the method: as §1, §2
In the next data set the test system is K. pneumoniae (13883). Briefly: MIC, micro-broth dilution. The class given is cell-based. The settings on record: Klebsiella pneumoniae, 24 h, read-out: ANTIMICROBIAL ACTIVITY (MIC). Here is the method:
as §1, §2

In a further data set the test system is C. neoformans (M68979). Briefly: MIC, micro-broth dilution. The class given is cell-based. The settings on record: Cryptococcus neoformans, 24 h, read-out: ANTIMICROBIAL ACTIVITY (MIC). How it is done:
as §1, §2

Another data set relates to S. aureus (H20809). Nature of the data set: MIC, micro-broth dilution. To be noted: Staphylococcus aureus, 24 h, read-out: ANTIMICROBIAL ACTIVITY (MIC). Format: cell-based. Here is the method:
as §1, §2

In the next data set the test system is S. marcescens (13880). Briefly: MIC, micro-broth dilution. The class given is cell-based. The settings on record: Serratia marcescens, 24 h, read-out: ANTIMICROBIAL ACTIVITY (MIC). How it is done:
as §1, §2

A further data set relates to S. pyrogenes (19615). Nature of the data set: MIC, micro-broth dilution. Format: cell-based. To be noted: 24 h, read-out: ANTIMICROBIAL ACTIVITY (MIC). Here is the method: as §1, §2
The subject of another data set is E. faecalis (29212). Nature of the data set: MIC, micro-broth dilution. Format: cell-based. To be noted: Enterococcus faecalis, 35° C., 24 hours, read-out: ANTIMICROBIAL ACTIVITY (MIC). Here is the method: as §1, §2
For a further data set, the system named is S. epidermidis (12228). Briefly: MIC, micro-broth dilution. The settings on record: Staphylococcus epidermidis, 35° C., 24 hours, read-out: ANTIMICROBIAL ACTIVITY (MIC). The class given is cell-based. Here is the method: as §1, §2
The next data set has as its system A. fumigatus (H1120). Nature of the data set: MIC, micro-broth dilution. The settings on record: Aspergillus fumigatus, 35° C., 24 hours, read-out: ANTIMICROBIAL ACTIVITY (MIC). The class given is cell-based. Here is the method:
as §1, §2

For a further data set, the system named is E. coli (25922). Nature of the data set: MIC, micro-broth dilution. The class given is cell-based. To be noted: Escherichia coli, 35° C., 24 hours, read-out: ANTIMICROBIAL ACTIVITY (MIC). How it is done:
as §1, §2

The test system of a further data set is S. aureus (25923). Nature of the data set: MIC, micro-broth dilution. The class given is cell-based. The settings on record: Staphylococcus aureus, 35° C., 24 hours, read-out: ANTIMICROBIAL ACTIVITY (MIC). Here is the method:
as §1, §2

A further data set has as its system S. aureus (29213). Nature of the data set: MIC, micro-broth dilution. Format: cell-based. To be noted: Staphylococcus aureus, 24 h, read-out: ANTIMICROBIAL ACTIVITY (MIC). How it is done:
as §1, §2

For another data set, the system named is C. neoformans (90012). Nature of the data set: MIC, micro-broth dilution. Format: cell-based. To be noted: Cryptococcus neoformans, 24 h, read-out: ANTIMICROBIAL ACTIVITY (MIC). How it is done: as §1, §2
A further data set concerns A. fumigatus (H29709). Briefly: MIC, micro-broth dilution. Format: cell-based. The settings on record: Aspergillus fumigatus, 35° C., 24 hours, read-out: ANTIMICROBIAL ACTIVITY (MIC). How it is done: as §1, §2
The subject of another data set is P. aeruginosa (10145). Briefly: MIC, micro-broth dilution. Format: cell-based. To be noted: Pseudomonas aeruginosa, 35° C., 24 hours, read-out: ANTIMICROBIAL ACTIVITY (MIC). Here is the method: as §1, §2
The next data set concerns C. albicans (90028). Nature of the data set: MIC, micro-broth dilution. The class given is cell-based. The settings on record: Candida albicans, 35° C., 24 hours, read-out: ANTIMICROBIAL ACTIVITY (MIC). How it is done: as §1, §2
A further data set concerns S. pneumoniae (6305). Nature of the data set: MIC, micro-broth dilution. The class given is cell-based. The settings on record: Streptococcus pneumoniae, 35° C., 24 hours, read-out: ANTIMICROBIAL ACTIVITY (MIC). How it is done: as §1, §2
A further data set has as its system P. vulgaris (13315). Briefly: MIC, micro-broth dilution. The settings on record: Proteus vulgaris, 35° C., 24 hours, read-out: ANTIMICROBIAL ACTIVITY (MIC). The class given is cell-based. How it is done: as §1, §2
For another data set, the system named is S. agalactiae (13813). Nature of the data set: MIC, micro-broth dilution. Format: cell-based. To be noted: Streptococcus agalactiae, 35° C., 24 hours, read-out: ANTIMICROBIAL ACTIVITY (MIC). Here is the method:
as §1, §2

As for `C[C@H](C(=O)NCCCCN)[C@H]1CC[C@H]2[C@@H]3CC=C4C[C@@H](O)CC[C@]4(C)[C@H]3CC[C@]12C` [SM-3], in data set [1], the MIC is more than 100 µg/mL.
On the same count and under the same terms, the same measure for `C[C@H](C(=O)NCCCCN)[C@H]1CC[C@H]2[C@@H]3CC=C4C[C@@H](OS(=O)(=O)O)CC[C@]4(C)[C@H]3CC[C@]12C` [SM-4]: more than 100 µg/mL.
The compound `C[C@H](CCC(=O)NCCNCCNCCN)[C@H]1CC[C@H]2[C@@H]3[C@H](O)C[C@@H]4C[C@H](O)CC[C@]4(C)[C@H]3C[C@H](O)[C@]12C` [SM-17] returned an MCC at 24 h in [2] of more than 100 µg/mL. The MIC in the data set with E. cloacae (13047) came out at 50 µg/mL (≈ 93.1 µM); with E. faecium (T6480-9), 50 µg/mL (≈ 93.1 µM); in the data set on P. aeruginosa (2853), 50 µg/mL (≈ 93.1 µM); in the data set on K. pneumoniae (13883), 50 µg/mL (≈ 93.1 µM); in the data set with C. neoformans (M68979), 12.5 µg/mL (≈ 23.3 µM); in the data set on S. aureus (H20809) it was 50 µg/mL (≈ 93.1 µM). Moreover, the MIC in the data set on S. marcescens (13880) was more than 100 µg/mL; in the data set on S. pyrogenes (19615) it was 12.5 µg/mL (≈ 23.3 µM); in the data set with E. faecalis (29212), 50 µg/mL (≈ 93.1 µM); in the data set on S. epidermidis (12228) it was 25 µg/mL (≈ 46.6 µM); with A. fumigatus (H1120) it was 25 µg/mL (≈ 46.6 µM); in the data set with E. coli (25922), 50 µg/mL (≈ 93.1 µM). Moreover, the MIC stood at 25 µg/mL (≈ 46.6 µM) with S. aureus (25923); 25 µg/mL (≈ 46.6 µM) with S. aureus (29213); 12.5 µg/mL (≈ 23.3 µM) in the data set with C. neoformans (90012); 25 µg/mL (≈ 46.6 µM) with A. fumigatus (H29709); 100 µg/mL (≈ 186 µM) in the data set with P. aeruginosa (10145); 25 µg/mL (≈ 46.6 µM) in the data set on C. albicans (90028). In addition, the MIC in the data set on S. pneumoniae (6305) came to 25 µg/mL (≈ 46.6 µM); in the data set on P. vulgaris (13315) it was 50 µg/mL (≈ 93.1 µM); in the data set with S. agalactiae (13813), 12.5 µg/mL (≈ 23.3 µM).
The compound `C[C@H](CCC(=O)NCCNCCNCCN)[C@H]1CC[C@H]2[C@@H]3CC[C@@H]4CCCC[C@]4(C)[C@H]3CC[C@]12C` [SM-21] returned an MCC at 24 h in data set [2] of 3.13 µg/mL. Moreover, the MIC is more than 100 µg/mL in the data set on E. cloacae (13047); 1.56 µg/mL (≈ 3.19 µM) in the data set with E. faecium (T6480-9); 25 µg/mL (≈ 51.1 µM) with P. aeruginosa (2853); more than 100 µg/mL in the data set on K. pneumoniae (13883); 1.56 µg/mL (≈ 3.19 µM) with C. neoformans (M68979); 3.13 µg/mL (≈ 6.4 µM) in the data set on S. aureus (H20809). Moreover, the MIC is more than 100 µg/mL with S. marcescens (13880); 3.13 µg/mL (≈ 6.4 µM) with S. pyrogenes (19615); 3.13 µg/mL (≈ 6.4 µM) in the data set with E. faecalis (29212); 1.56 µg/mL (≈ 3.19 µM) in the data set with S. epidermidis (12228); 6.25 µg/mL (≈ 12.8 µM) with A. fumigatus (H1120); 50 µg/mL (≈ 102 µM) in the data set with E. coli (25922). The MIC in the data set with S. aureus (25923) worked out at 3.13 µg/mL (≈ 6.4 µM); with S. aureus (29213), 3.13 µg/mL (≈ 6.4 µM); in the data set on C. neoformans (90012) it was 1.56 µg/mL (≈ 3.19 µM); with A. fumigatus (H29709) it was 3.13 µg/mL (≈ 6.4 µM); in the data set with P. aeruginosa (10145), 25 µg/mL (≈ 51.1 µM); in the data set on C. albicans (90028) it was 6.25 µg/mL (≈ 12.8 µM). Further, the MIC stood at 1.56 µg/mL (≈ 3.19 µM) in the data set with S. pneumoniae (6305), 50 µg/mL (≈ 102 µM) with P. vulgaris (13315) and 1.56 µg/mL (≈ 3.19 µM) in the data set on S. agalactiae (13813).
